Assay results as given in patent US20180327367A1, “MACROCYCLIC BROAD SPECTRUM ANTIBIOTICS” (priority 2015, published 2018).
pIC50: −log10 of the molar value. ≈ marks a conversion by molar mass, not a printed value. Where two headings read alike, the source gives them in different places.

How the values were obtained:
[1] = test system: Escherichia coli ATCC 25922; test: Minimum inhibitory concentration, broth micro-dilution (CLSI), E. coli; type: cell-based; details: Escherichia coli, ATCC25922, 22 h, read-out: MIC (μg/mL) E. coli
[2] = test system: Escherichia coli MC4100 harboring the IMP4213 (E. coli IMP); test: microbe, parasite or virus in culture; type: cell-based; details: Escherichia coli, 22 h
Method in brief: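 Broth micro-dilution per CLSI in cation-adjusted Mueller Hinton Broth with 0.002% Tween-80; E. coli MC4100 carries IMP4213, raising outer-membrane permeability. Compounds tested as 2-fold serial dilutions (10 concentrations) from 4 μg/mL (protocol 2) or 0.5 μg/mL (protocol 3); inoculum OD600 0.0005, 35° C for 22 hours.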

[3] = test system: Methicillin Resistant Staphylococcus aureus strain USA 300, NRS384; test: Minimum inhibitory concentration, broth micro-dilution (CLSI), S. aureus; type: cell-based; details: Staphylococcus aureus, MRSA / NRS 384 / USA300, 22 h, read-out: MIC (μg/mL) S. aureus
Method in brief: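 Colonies grown 20 hours at 35° C were suspended in cation-adjusted Mueller Hinton Broth with 0.002% Tween-80. Cells were then added to 2-fold compound dilutions starting at 4 or 0.5 μg/mL, at OD600 0.0005.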

[4] = biological target: T1, SpsB (Staphylococcus aureus signal peptidase) (Staphylococcus aureus, UniProt P0A070); test: cell-based; type: biochemical; details: SpsB IC50, whole-cell S. aureus (USA300 background, overexpressing SpsB) as SpsB source; fluorogenic peptide substrate, kinetic read 30 min
T1 construct: This assay uses a suspension of Staphylococcus aureus cells as a source of SpsB instead of recombinant SpsB protein; endogenous in cells; host or cells: S. aureus, USA300 background, overexpressing SpsB (whole-cell suspension from frozen pellets)
Method in brief: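 Whole S. aureus cells (USA300, overexpressing SpsB) in PBS with MgCl2, CaCl2 and 0.1% Tween-80 served as enzyme source, mixed with 20 μM stock of (Dabcyl)βAla-KPAKAAE(Edans) substrate before use. Fluorescence (ex 340/em 490 nm) read kinetically over 30 min. IC50 from reaction rate versus 11-point inhibitor concentration.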

[5] = E. coli ATCC 25922, 35° C., 22 hours
[6] = read-out: MIC (μg/mL) E. coli IMP, E. coli MC4100 IMP4213, increased outer-membrane permeability, 35° C., 22 hours
[7] = MRSA USA 300 NRS384, 35° C., 22 hours

T1 sequence (P0A070 whole entry): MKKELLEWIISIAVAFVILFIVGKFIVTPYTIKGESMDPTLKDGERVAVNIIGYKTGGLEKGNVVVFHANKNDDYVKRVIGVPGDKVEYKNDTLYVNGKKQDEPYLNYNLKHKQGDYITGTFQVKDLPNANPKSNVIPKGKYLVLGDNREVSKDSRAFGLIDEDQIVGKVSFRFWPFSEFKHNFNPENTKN

| SMILES | MIC [1, 5] | MIC [2, 6] | MIC [3, 7] | pIC50 [4] | MIC [1] | MIC ([2]; read-out: MIC (μg/mL) E. coli IMP) | MIC [3] |
| --- | --- | --- | --- | --- | --- | --- | --- |
| CCCCCc1ccc(-c2ncc(C(=O)N[C@@H](CCN)C(=O)N(C)[C@@H]3C(=O)N[C@@H](C)C(=O)N[C@H](C(=O)NCC#N)Cc4ccc(OCCN)c(c4)-c4cc3ccc4OCCN)c(C)n2)cc1 [Compound 162] | 0.063 µg/mL (≈ 0.0697 µM) | 0.0025 µg/mL (≈ 0.00277 µM) | 0.023 µg/mL (≈ 0.0254 µM) | 9.14 |  |  |  |
| Cc1nc(-c2ccc(C(C)(C)C)cc2)ncc1C(=O)N[C@@H](CCN)C(=O)N(C)[C@@H]1C(=O)N[C@@H](C)C(=O)N[C@H](C(=O)NCC#N)Cc2ccc(OCCN)c(c2)-c2cc1ccc2OCCN [Compound 163] | < 0.063 µg/mL | 0.002 µg/mL (≈ 0.00225 µM) | 0.031 µg/mL (≈ 0.0348 µM) | 9.15 |  |  |  |
| CCCCOc1ccc(-c2ncc(C(=O)N[C@@H](CCN)C(=O)N(C)[C@@H]3C(=O)N[C@@H](C)C(=O)N[C@H](C(=O)NCC#N)Cc4ccc(OCCN)c(c4)-c4cc3ccc4OCCN)c(C)n2)cc1 [Compound 164] | 0.13 µg/mL (≈ 0.143 µM) | 0.0039 µg/mL (≈ 0.0043 µM) | 0.047 µg/mL (≈ 0.0519 µM) | 9.21 |  |  |  |
| CCCc1ccc(-c2nc(C)c(C(=O)N[C@@H](CCN)C(=O)N(C)[C@@H]3C(=O)N[C@@H](C)C(=O)N[C@H](C(=O)NCC#N)Cc4ccc(OCCN)c(c4)-c4cc3ccc4OCCN)c(C)n2)cc1 [Compound 165] | 0.19 µg/mL (≈ 0.213 µM) | 0.0039 µg/mL (≈ 0.00438 µM) | 0.047 µg/mL (≈ 0.0528 µM) | 9.21 |  |  |  |
| Cc1nc(-c2ccc(CC(C)C)cc2)sc1C(=O)N[C@@H](CCN)C(=O)N(C)[C@@H]1C(=O)N[C@@H](C)C(=O)N[C@H](C(=O)NCC#N)Cc2ccc(OCCN)c(c2)-c2cc1ccc2OCCN [Compound 166] | 0.5 µg/mL (≈ 0.559 µM) | 0.016 µg/mL (≈ 0.0179 µM) | 0.063 µg/mL (≈ 0.0704 µM) | 9.11 |  |  |  |
| Cc1cc(-c2ccc(CC(C)C)cc2)cnc1C(=O)N[C@@H](CCN)C(=O)N(C)[C@@H]1C(=O)N[C@@H](C)C(=O)N[C@H](C(=O)NCC#N)Cc2ccc(OCCN)c(c2)-c2cc1ccc2OCCN [Compound 168] | 0.75 µg/mL (≈ 0.844 µM) | 0.031 µg/mL (≈ 0.0349 µM) | 0.063 µg/mL (≈ 0.0709 µM) | 9.10 |  |  |  |
| Cc1nc(-c2ccc([Si](C)(C)C)cc2)ncc1C(=O)N[C@@H](CCN)C(=O)N(C)[C@@H]1C(=O)N[C@@H](C)C(=O)N[C@H](C(=O)NCC#N)Cc2ccc(OCCN)c(c2)-c2cc1ccc2OCCN [Compound 170] |  |  |  | 9.14 | 0.13 µg/mL (≈ 0.143 µM) | 0.0085 µg/mL (≈ 0.00938 µM) | 0.073 µg/mL (≈ 0.0806 µM) |
| Cc1nc(-c2ccc(C(F)(F)F)cc2)ncc1C(=O)N[C@@H](CCN)C(=O)N(C)[C@@H]1C(=O)N[C@@H](C)C(=O)N[C@H](C(=O)NCC#N)Cc2ccc(OCCN)c(c2)-c2cc1ccc2OCCN [Compound 171] | 0.5 µg/mL (≈ 0.554 µM) | 0.0078 µg/mL (≈ 0.00865 µM) | 0.094 µg/mL (≈ 0.104 µM) | 9.14 |  |  |  |
| CC(C)Cc1ccc(-c2ccc(C(=O)N[C@@H](CCN)C(=O)N(C)[C@@H]3C(=O)N[C@@H](C)C(=O)N[C@H](C(=O)NCC#N)Cc4ccc(OCCN)c(c4)-c4cc3ccc4OCCN)c(C(F)F)c2)cc1 [Compound 172] | 0.19 µg/mL (≈ 0.206 µM) | 0.016 µg/mL (≈ 0.0173 µM) | 0.094 µg/mL (≈ 0.102 µM) | 9.00 |  |  |  |
| Cc1cc(-c2ncc(CC(C)C)cn2)ccc1C(=O)N[C@@H](CCN)C(=O)N(C)[C@@H]1C(=O)N[C@@H](C)C(=O)N[C@H](C(=O)NCC#N)Cc2ccc(OCCN)c(c2)-c2cc1ccc2OCCN [Compound 174] | 0.83 µg/mL (≈ 0.933 µM) | 0.026 µg/mL (≈ 0.0292 µM) | 0.17 µg/mL (≈ 0.191 µM) | 9.04 |  |  |  |
| CCCCc1cnc(-c2ccc(C(=O)N[C@@H](CCN)C(=O)N(C)[C@@H]3C(=O)N[C@@H](C)C(=O)N[C@H](C(=O)NCC#N)Cc4ccc(OCCN)c(c4)-c4cc3ccc4OCCN)c(C)c2)nc1 [Compound 175] | 0.5 µg/mL (≈ 0.562 µM) | 0.0078 µg/mL (≈ 0.00876 µM) | 0.13 µg/mL (≈ 0.146 µM) | 9.12 |  |  |  |
| CCc1cnc(-c2ccc(C(=O)N[C@@H](CCN)C(=O)N(C)[C@@H]3C(=O)N[C@@H](C)C(=O)N[C@H](C(=O)NCC#N)Cc4ccc(OCCN)c(c4)-c4cc3ccc4OCCN)c(C)c2)nc1 [Compound 176] | 2 µg/mL (≈ 2.32 µM) | 0.13 µg/mL (≈ 0.151 µM) | 1 µg/mL (≈ 1.16 µM) | 8.59 |  |  |  |
| CC(C)CCc1ccc(-c2ccc(C(=O)N[C@@H](CCN)C(=O)N(C)[C@@H]3C(=O)N[C@@H](C)C(=O)N[C@H](C(=O)NCC#N)Cc4ccc(OCCN)c(c4)-c4cc3ccc4OCCN)cc2)cc1 [Compound 177] | 0.19 µg/mL (≈ 0.214 µM) | 0.016 µg/mL (≈ 0.018 µM) | 0.094 µg/mL (≈ 0.106 µM) | 8.96 |  |  |  |
